Experimental findings from ChEMBL document CHEMBL1201862, “PubChem BioAssay data set” (2004) are described below.

Test systems include RPMI-8226; NCI-H226; SK-MEL-28; A549; IGROV-1; U-251; LOX IMVI; CCRF-CEM; UACC-62; NCI-H460; SR; SNB-75; UACC-257; EKVX; HCT-116; SNB-19.
Assay in all cases: DTP human tumour cell line panel, 48 h

SMILES strings stand for the structures.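 Step 1: Grow cells in 96-well plates. Step 2: Expose to compound for 48 hours at 5 concentrations. Step 3: Interpolate endpoints linearly; if unreached, use highest concentration. GI50 marks 50% less growth.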 Active and inactive are the calls of the source. Rule as the data show it: active = GI50 up to about 1.1 µM and inactive = higher. Bounds are passed on as bounds.

What is called GI50 is the concentration at which growth is held to half of that of the control.

In the case of `c1ccc2c(CNCCCCCCNCc3cccc4ccccc34)cccc2c1`, the GI50 was 2.27 µM (inactive) with RPMI-8226; 17.4 µM (inactive) with NCI-H226; 1.85 µM (inactive) with SK-MEL-28; 17.8 µM (inactive) in the experiment on A549; 16.2 µM (inactive) in the experiment on IGROV-1; 10.7 µM (inactive) with U-251. In addition, the GI50 with LOX IMVI is 1.87 µM (inactive); with CCRF-CEM, 3.06 µM (inactive); in the experiment on UACC-62 it was 9.73 µM (inactive); in the experiment with NCI-H460, 1.81 µM (inactive); with SR, 2.14 µM (inactive); with SNB-75, 2.31 µM (inactive). Moreover, the GI50 is 1.74 µM (inactive) in the experiment on UACC-257, 13.2 µM (inactive) with EKVX and 1.99 µM (inactive) in the experiment with HCT-116.
In the case of `Cc1c(Cl)cccc1NC(=O)C(=O)C1C(=O)NC(=O)NC1=O`, the GI50 in the experiment with RPMI-8226, in the experiment on NCI-H226, in the experiment on SK-MEL-28, in the experiment on A549, in the experiment with SNB-19 and in the experiment on IGROV-1 was > 100 µM (inactive) throughout. Further, the GI50 with U-251, in the experiment with LOX IMVI, in the experiment with CCRF-CEM, with UACC-62, with NCI-H460 and in the experiment with SR was > 100 µM (inactive) throughout. Also, the GI50 with SNB-75, with UACC-257, with EKVX and with HCT-116 was > 100 µM (inactive) throughout.
As to `COCCNC(=O)C1C(=O)N(CCOC)C(=O)/C1=N/N` (stereo unspecified), the GI50 with RPMI-8226, in the experiment on NCI-H226, in the experiment with SK-MEL-28, with A549, in the experiment with SNB-19 and with IGROV-1 was > 100 µM (inactive) each time. The GI50 in the experiment on U-251, in the experiment on LOX IMVI, with CCRF-CEM, in the experiment on UACC-62, in the experiment with SR and in the experiment on SNB-75 was > 100 µM (inactive) each time. The GI50 in the experiment on UACC-257, with EKVX and with HCT-116 was > 100 µM (inactive) throughout.
As to `O=c1[nH]c(=O)n(C2OC(COP(=O)(O)OP(=O)(O)O)C(O)C2O)cc1F` (stereo unspecified), the GI50 with RPMI-8226 is 0.436 µM (active); in the experiment on NCI-H226, 3.13 µM (inactive); in the experiment on SK-MEL-28, 2.13 µM (inactive); with A549 it was 0.119 µM (active); in the experiment on SNB-19, 0.743 µM (active); with IGROV-1 it was 11.8 µM (inactive). In addition, the GI50 is 0.391 µM (active) in the experiment with U-251; 0.251 µM (active) with LOX IMVI; 0.817 µM (active) with CCRF-CEM; 2.7 µM (inactive) in the experiment on UACC-62; 0.0453 µM (active) in the experiment with NCI-H460; 1.34 µM (inactive) in the experiment on SR. The GI50 is 8.65 µM (inactive) with SNB-75, 6.11 µM (inactive) in the experiment on UACC-257, 2.44 µM (inactive) in the experiment on EKVX and 0.0643 µM (active) in the experiment on HCT-116.
As for `COc1ccc2c3c(n(Cc4ccccc4)c(=O)c2c1)-c1cc(OC)c(OC)cc1C3C` (stereo unspecified), the GI50 in the experiment with RPMI-8226 is 14.5 µM (inactive); with NCI-H226, 17.9 µM (inactive); in the experiment with SK-MEL-28 it was 43.5 µM (inactive); in the experiment with A549, 18.6 µM (inactive); with SNB-19 it was 21.7 µM (inactive); in the experiment on IGROV-1, 37.6 µM (inactive). The GI50 in the experiment with U-251 was 5.69 µM (inactive); in the experiment on LOX IMVI, 14.3 µM (inactive); in the experiment with CCRF-CEM, > 89.5 µM (inactive); in the experiment with UACC-62, 18.7 µM (inactive); with NCI-H460 it was 4.71 µM (inactive); with SR it was 5.12 µM (inactive). In addition, the GI50 with SNB-75 was 13.6 µM (inactive); with UACC-257, 69.8 µM (inactive); in the experiment with EKVX, 10.6 µM (inactive); in the experiment with HCT-116, 14.7 µM (inactive).
Turning to `Cc1cc(O)nc(CNC(=O)c2cccc3ccccc23)n1`, the GI50 in the experiment with NCI-H226, in the experiment with SK-MEL-28, in the experiment on A549, with SNB-19, in the experiment on IGROV-1 and with U-251 was > 100 µM (inactive) in each case. Further, the GI50 in the experiment with LOX IMVI, in the experiment on CCRF-CEM, in the experiment with UACC-62, in the experiment on NCI-H460, in the experiment with SR and in the experiment on SNB-75 was > 100 µM (inactive) in each case. The GI50 in the experiment on UACC-257, in the experiment with EKVX and in the experiment on HCT-116 was > 100 µM (inactive) in each case.
For `CC(C)c1ccc2c(c1)CCC1C(C)(C)[C@@H](O)CC[C@]21C` (stereo partly specified), the GI50 in the experiment with RPMI-8226 is 21.2 µM (inactive); in the experiment on NCI-H226 it was 18.7 µM (inactive); in the experiment on SK-MEL-28, 44.5 µM (inactive); in the experiment on A549, 30.6 µM (inactive); with SNB-19 it was 52.4 µM (inactive); in the experiment on IGROV-1, > 100 µM (inactive). The GI50 in the experiment with U-251 is 22.4 µM (inactive); in the experiment on LOX IMVI, 15.1 µM (inactive); in the experiment on CCRF-CEM, 27.9 µM (inactive); with UACC-62, 42.3 µM (inactive); with NCI-H460, 17.9 µM (inactive); with SR, 16.5 µM (inactive). The GI50 was 19.6 µM (inactive) in the experiment with SNB-75 and 18.5 µM (inactive) in the experiment with HCT-116.
Regarding `CN1CCC(CN2c3ccccc3Sc3ccccc32)CC1`, the GI50 in the experiment on RPMI-8226 was 12.7 µM (inactive); with NCI-H226, 15.4 µM (inactive); with SK-MEL-28, 11 µM (inactive); in the experiment with A549 it was 15.1 µM (inactive); with SNB-19, 15.7 µM (inactive); in the experiment with IGROV-1, 16.7 µM (inactive). In addition, the GI50 in the experiment with U-251 was 15.7 µM (inactive); with LOX IMVI, 13.5 µM (inactive); with CCRF-CEM, 16.3 µM (inactive); in the experiment on UACC-62, 14.8 µM (inactive); with NCI-H460, 14.7 µM (inactive); with SR it was 14.1 µM (inactive). Further, the GI50 is 14.6 µM (inactive) in the experiment on UACC-257, 14.4 µM (inactive) in the experiment with EKVX and 12.6 µM (inactive) with HCT-116.
On to `CC(C)C1COC(c2cccc(C3=N[C@@H](C(C)C)CO3)n2)=N1` (stereo partly specified), for which the GI50 in the experiment with RPMI-8226, in the experiment with NCI-H226, in the experiment on SK-MEL-28, in the experiment on A549, in the experiment with SNB-19 and with IGROV-1 was > 100 µM (inactive) in each case. Further, the GI50 in the experiment with U-251 is 59.3 µM (inactive); in the experiment with LOX IMVI it was > 100 µM (inactive); with CCRF-CEM it was > 100 µM (inactive); in the experiment on NCI-H460, > 100 µM (inactive); in the experiment with SR it was > 100 µM (inactive); in the experiment on SNB-75, > 100 µM (inactive). The GI50 in the experiment on EKVX and in the experiment with HCT-116 was > 100 µM (inactive) in each case.
